Test results: US8889870B2, “Kinase inhibitors” (Allergan, Inc., priority 2012, dated 2014)

Tests used:
[1] = molecular target: VEGFR2 (KDR) kinase, purified cytoplasmic domain KDR protein (Homo sapiens (Human), UniProt P35968); assay: VEGFR2 Kinase Assay; type: biochemical; details: 2.7 μM ATP, poly-Glu-Tyr (4:1) substrate, 15 minute incubation at 30° C., ELISA read at 492 nm
Procedure: Biochemical KDR kinase assays were performed in 96 well microliter plates that were coated overnight with 75 μg/well of poly-Glu-Tyr (4:1) in 10 mM Phosphate Buffered Saline (PBS), pH 7.4. The coated plates were washed with 2 mLs per well PBS+0.05% Tween-20 (PBS-T), blocked by incubation with PBS containing 1% BSA, then washed with 2 mLs per well PBS-T prior to starting the reaction. […] Reactions were initiated by the addition 20 ul per well of kinase buffer containing 200-300 ng purified cytoplasmic domain KDR protein (BPS Bioscience, San Diego, Calif.). Following a 15 minute incubation at 30° C., the reactions were washed 2 mLs per well PBS-T. 100 μl of a monoclonal anti-phosphotyrosine antibody-peroxidase conjugate diluted 1:10,000 in PBS-T was added to the wells for 30 minutes. Following a 2 mLs per well wash with PBS-Tween-20, 100 μl of O-Phenylenediamine Dihydrochloride in phosphate-citrate buffer, containing urea hydrogen peroxide, was added to the wells for 7-10 minutes as a colorimetric substrate for the peroxidase. […] IC50 values for compound inhibition were calculated directly from graphs of optical density (arbitrary units) versus compound concentration following subtraction of blank values.

[2] = molecular target: PDGFRβ kinase, purified cytoplasmic domain PDGFR-b protein (Homo sapiens (Human), UniProt P09619); assay: PDGFRβ Kinase Assay; type: biochemical; details: 36 μM ATP, poly-Glu-Tyr (4:1) substrate, 60 minute incubation at 30° C., ELISA read at 492 nm
Procedure: Biochemical PDGFRβ kinase assays were performed in 96 well microtiter plates that were coated overnight with 75 μg of poly-Glu-Tyr (4:1) in 10 mM Phosphate Buffered Saline (PBS), pH 7.4. The coated plates were washed with 2 mLs per well PBS+0.05% Tween-20 (PBS-T), blocked by incubation with PBS containing 1% BSA, then washed with 2 mLs per well PBS-T prior to starting the reaction. Reactions were carried out in 100 μL reaction volumes containing 36 μM ATP in kinase buffer (50 mM Hepes buffer pH 7.4, 20 mM MgCl2, 0.1 mM MnCl2 and 0.2 mM Na3VO4). Test compounds were reconstituted in 100% DMSO and added to the reaction to give a final DMSO concentration of 5%. Reactions were initiated by the addition 20 ul per well of kinase buffer containing 200-300 ng purified cytoplasmic domain PDGFR-b protein (Millipore). Following a 60 minute incubation at 30° C., the reactions were washed 2 mLs per well PBS-T. 100 μl of a monoclonal anti-phosphotyrosine antibody-peroxidase conjugate diluted 1:10,000 in PBS-T was added to the wells for 30 minutes. Following a 2 mLs per well wash with PBS-Tween-20, 100 μl of O-Phenylenediamine Dihydrochloride in phosphate-citrate buffer, containing urea hydrogen peroxide, was added to the wells for 7-10 minutes as a colorimetric substrate for the peroxidase. The reaction was terminated by the addition of 100 μl of 2.5N H2SO4 to each well and read using a microplate ELISA reader set at 492 nm. IC50 values for compound inhibition were calculated directly from graphs of optical density (arbitrary units) versus compound concentration following subtraction of blank values. […]

Sequence of VEGFR2 (KDR) kinase, purified cytoplasmic domain KDR protein (P35968 786-1356): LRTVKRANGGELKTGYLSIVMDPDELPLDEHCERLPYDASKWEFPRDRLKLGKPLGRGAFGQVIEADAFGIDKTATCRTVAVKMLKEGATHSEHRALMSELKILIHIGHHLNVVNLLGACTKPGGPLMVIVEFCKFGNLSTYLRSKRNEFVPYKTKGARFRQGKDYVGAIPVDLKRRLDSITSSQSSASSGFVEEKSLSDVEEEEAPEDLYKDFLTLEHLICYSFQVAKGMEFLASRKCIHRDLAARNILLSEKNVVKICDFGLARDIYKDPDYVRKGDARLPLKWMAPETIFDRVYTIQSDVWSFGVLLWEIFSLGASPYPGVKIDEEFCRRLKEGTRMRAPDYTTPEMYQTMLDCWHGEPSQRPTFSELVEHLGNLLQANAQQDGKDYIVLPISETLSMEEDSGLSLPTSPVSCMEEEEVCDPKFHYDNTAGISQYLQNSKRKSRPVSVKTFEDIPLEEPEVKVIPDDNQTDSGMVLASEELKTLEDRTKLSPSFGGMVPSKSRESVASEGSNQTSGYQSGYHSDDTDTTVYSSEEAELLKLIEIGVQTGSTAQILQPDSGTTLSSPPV
Sequence of PDGFRβ kinase, purified cytoplasmic domain PDGFR-b protein (P09619 554-1106): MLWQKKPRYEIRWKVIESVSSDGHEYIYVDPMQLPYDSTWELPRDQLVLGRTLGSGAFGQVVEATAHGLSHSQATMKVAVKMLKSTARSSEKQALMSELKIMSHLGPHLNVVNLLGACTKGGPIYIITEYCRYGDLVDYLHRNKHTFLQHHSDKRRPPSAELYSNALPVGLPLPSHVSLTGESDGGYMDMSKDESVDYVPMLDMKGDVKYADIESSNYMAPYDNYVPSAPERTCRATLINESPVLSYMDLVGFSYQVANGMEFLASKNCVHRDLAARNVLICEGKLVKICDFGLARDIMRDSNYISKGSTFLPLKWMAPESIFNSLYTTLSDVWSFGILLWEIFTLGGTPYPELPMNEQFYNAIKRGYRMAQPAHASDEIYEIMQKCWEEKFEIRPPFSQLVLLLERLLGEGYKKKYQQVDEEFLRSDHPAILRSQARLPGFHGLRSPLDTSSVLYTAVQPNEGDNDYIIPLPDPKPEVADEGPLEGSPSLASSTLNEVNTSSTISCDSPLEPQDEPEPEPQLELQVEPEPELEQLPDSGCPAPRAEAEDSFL

| Molecule | IC50 [1] | IC50 [2] |
| --- | --- | --- |
| 4-(2-Methylsulfanyl-5,7-dihydro-pyrrolo[3,4-d]pyrimidin-6-yl)-pyridine-2-carboxylic acid (3-trifluoromethyl-phenyl)-amide [Example 126] | > 10000 nM |  |
| CC(C)c1cccc(NC(=O)c2cccc(N3CCc4nc(N)ncc4C3)c2)c1 [Example 2, 3-(2-amino-7,8-dihydropyrido[4,3-d]pyrimidin-6(5H)-yl)-N-(3-isopropylphenyl)benzamide] |  | 54 nM |
| Cc1cccc(NC(=O)c2cccc(N3CCc4nc(N)ncc4C3)c2)c1 [Example 3, 3-(2-amino-7,8-dihydropyrido[4,3-d]pyrimidin-6(5H)-yl)-N-(3-methylphenyl)benzamide] |  | 116 nM |
| CC(C)(C)c1ccc(NC(=O)c2cccc(N3CCc4nc(N)ncc4C3)c2)cc1 [Example 4, 3-(2-amino-7,8-dihydropyrido[4,3-d]pyrimidin-6(5H)-yl)-N-(4-tert-butylphenyl)benzamide] |  | 109 nM |
| Nc1ncc2c(n1)CCN(c1cccc(C(=O)Nc3cccc(C(F)(F)F)c3)c1)C2 [Example 5, 3-(2-amino-7,8-dihydropyrido[4,3-d]pyrimidin-6(5H)-yl)-N-[3-(trifluoromethyl)phenyl]benzamide] |  | 47 nM |
| Cc1ccc(NC(=O)c2cccc(N3CCc4nc(N)ncc4C3)c2)cc1 [Example 6, 3-(2-amino-7,8-dihydropyrido[4,3-d]pyrimidin-6(5H)-yl)-N-(4-methylphenyl)benzamide] |  | 90 nM |
| CCCCNC(=O)c1cccc(N2CCc3nc(N)ncc3C2)c1 [Example 16, 3-(2-amino-7,8-dihydropyrido[4,3-d]pyrimidin-6(5H)-yl)-N-butylbenzamide] |  | > 10000 nM |
| CC(C)(C)C1CCC(NC(=O)c2cccc(N3CCc4nc(N)ncc4C3)c2)CC1 (centres unmarked) [Example 17, 3-(2-amino-7,8-dihydropyrido[4,3-d]pyrimidin-6(5H)-yl)-N-(4-tert-butylcyclohexyl)benzamide] |  | 246 nM |
| Nc1ncc2c(n1)CCN(c1cccc(C(=O)NCC3CCCCC3)c1)C2 [Example 18, 3-(2-amino-7,8-dihydropyrido[4,3-d]pyrimidin-6(5H)-yl)-N-(cyclohexylmethyl)benzamide] |  | 602 nM |
| Nc1ncc2c(n1)CCN(c1cccc(C(=O)NC3CCCC3)c1)C2 [Example 19, 3-(2-amino-7,8-dihydropyrido[4,3-d]pyrimidin-6(5H)-yl)-N-cyclopentylbenzamide] |  | > 10000 nM |
| Cc1cccc(NC(=O)c2cccc(N3CCc4nc(N)ncc4C3)n2)c1 [Example 37, 6-(2-amino-7,8-dihydropyrido[4,3-d]pyrimidin-6(5H)-yl)-N-(3-methylphenyl)pyridine-2-carboxamide] |  | > 10000 nM |
| CSc1ncc2c(n1)CCN(c1cc(C)cc(C(=O)Nc3cccc(C(F)(F)F)c3)c1)C2 [Example 140, 3-methyl-5-[2-(methylthio)-7,8-dihydropyrido[4,3-d]pyrimidin-6(5H)-yl]-N-[3-(trifluoromethyl)phenyl]benzamide] | > 1000 nM |  |
| CSc1ncc2c(n1)CCN(c1cc(C)cc(C(=O)Nc3cccc(C(C)C)c3)c1)C2 [Example 142, N-(3-isopropylphenyl)-3-methyl-5-[2-(methylthio)-7,8-dihydropyrido[4,3-d]pyrimidin-6(5H)-yl]benzamide] | > 1000 nM |  |
| Cc1cc(C(=O)Nc2cccc(C(F)(F)F)c2)cc(N2CCc3nc(N)ncc3C2)c1 [Example 148, 3-(2-amino-7,8-dihydropyrido[4,3-d]pyrimidin-6(5H)-yl)-5-methyl-N-[3-(trifluoromethyl)phenyl]benzamide] |  | 273 nM |
| Cc1ccc(C(=O)Nc2cccc(C(C)C)c2)cc1N1CCc2nc(N)ncc2C1 [Example 149, 3-(2-amino-7,8-dihydropyrido[4,3-d]pyrimidin-6(5H)-yl)-N-(3-isopropylphenyl)-4-methylbenzamide] |  | 30 nM |
| Cc1cc(C(=O)Nc2cccc(C(C)C)c2)cc(N2CCc3nc(N)ncc3C2)c1 [Example 150, 3-(2-amino-7,8-dihydropyrido[4,3-d]pyrimidin-6(5H)-yl)-N-(3-isopropylphenyl)-5-methylbenzamide] |  | 59 nM |
| O=C(Nc1ccc(N2CCc3ccncc3C2)cc1)c1cccc(C(F)(F)F)c1 [Example 162, N-[4-(3,4-dihydro-2,7-naphthyridin-2(1H)-yl)phenyl]-3-(trifluoromethyl)benzamide] |  | > 10000 nM |
| Cc1cccc(NC(=O)Nc2ccc(N3CCc4ccncc4C3)cc2)c1 [Example 163, 1-[4-(3,4-dihydro-2,7-naphthyridin-2(1H)-yl)phenyl]-3-(3-methylphenyl)urea] |  | 1560 nM |
| O=C(Nc1ccccc1)Nc1ccc(N2CCc3ccncc3C2)cc1 [Example 164, 1-[4-(3,4-dihydro-2,7-naphthyridin-2(1H)-yl)phenyl]-3-phenylurea] |  | > 10000 nM |
| Cc1ccc(NC(=O)Nc2ccc(N3CCc4ccncc4C3)cc2)cc1 [Example 165, 1-[4-(3,4-dihydro-2,7-naphthyridin-2(1H)-yl)phenyl]-3-(4-methylphenyl)urea] | > 1000 nM | > 1000 nM |
| Cc1cccc(NC(=O)Nc2ccc(N3CCc4ccncc4C3)c(C)c2)c1 [Example 166, 1-[4-(3,4-dihydro-2,7-naphthyridin-2(1H)-yl)-3-methylphenyl]-3-(3-methylphenyl)urea] |  | 36 nM |
| Cc1cccc(NC(=O)Nc2ccc(N3CCc4ccncc4C3)cc2C)c1 [Example 167, 1-[4-(3,4-dihydro-2,7-naphthyridin-2(1H)-yl)-2-methylphenyl]-3-(3-methylphenyl)urea] |  | 1050 nM |
| CC(C)c1cccc(NC(=O)c2cccc(N3CCc4ccncc4C3)c2)c1 [Example 168, 3-(3,4-dihydro-2,7-naphthyridin-2(1H)-yl)-N-(3-isopropylphenyl)benzamide] |  | 40 nM |
| COC(=O)c1cncc2c1CCN(c1cccc(C(=O)Nc3cccc(C(C)C)c3)c1)C2 [Example 169, Methyl 7-(3-{[(3-isopropylphenyl)amino]carbonyl}phenyl)-5,6,7,8-tetrahydro-2,7-naphthyridine-4-carboxylate] |  | 15 nM |
| Nc1ncc2c(n1)CCN(c1cccc(C(=O)Nc3ccc(F)c(C(F)(F)F)c3)c1)C2 [Example 176, 3-(2-amino-7,8-dihydropyrido[4,3-d]pyrimidin-6(5H)-yl)-N-[4-fluoro-3-(trifluoromethyl)phenyl]benzamide] |  | 61 nM |
